Experiment [1] concerns Candida glabrata ATCC 2001. As to the kind of experiment: Minimum inhibitory concentration (MIC) assay, modified CLSI M27-A3. In kind it is cell-based. The conditions noted are these: 24 hours, 35° C. The procedure: (§1) MIC assays were performed in duplicate as previously described following a modified version of the CLSI M27-A3 methods.
(§2) Minimum inhibitory concentration (MIC) susceptibility testing was performed following a modified version, as previously reported, of the CLSI M27-A3 methods for the susceptibility testing of yeasts. Incubation temperature was 35° C. and the inoculum size was 0.5-2.5×10^3 colony-forming units (CFU)/mL for yeasts. MICs were performed to determine the bioactivity of each new OF-Δxyl analogue (Table 3).

Experiment [2] deals with Candida albicans ATCC 3147. Type of experiment: cell-based. As to conditions: 24 hours, 35° C., listed as dihydrosphingosine. The procedure: as §1, §2
The subject of experiment [3] is S. cerevisiae DGY6 haploid BY4741. In kind it is cell-based. The conditions noted are these: Saccharomyces cerevisiae DGY6 haploid BY4741; 24 hours, 35° C. As for the experimental part: as §1, §2
In another experiment the target is T1, actin (Oryctolagus cuniculus, UniProt P68135).
T1 construct: purchased Cytoskeleton, Inc. (Denver, CO) BK003
The experiment can be described thus: Pyrene labeled actin polymerization assay. Type of experiment: biochemical. As to conditions: 5 μM; approximately one hour after incubation in the polymerization buffer. As for the experimental part: (§3) Actin polymerization and depolymerization assays were performed using the Actin polymerization biochem kit (#BK003; Cytoskeleton, Inc. Denver, CO) following the manufacturer's instructions with some modifications. Briefly, for the polymerization assay, G-actin stock solution was made at 0.2 mg/mL instead of 0.4 mg/mL. For the depolymerization assay, F-actin stock solution was diluted 9-fold instead of 5-fold. […] The experiments were done in duplicate.

For experiment [4], the target named is T2, F-actin (Oryctolagus cuniculus, UniProt P68135). The experiment can be described thus: Pyrene labeled actin depolymerization assay. Details: purchased Cytoskeleton, Inc. (Denver, CO) BK003. In kind it is biochemical. The conditions noted are these: 5 μM; for pyrene fluorescent reading following incubation in depolymerization buffer: no drug control at 2,500 AU. The procedure: as §3

The target of experiment [5] is T2, F-actin. As to the kind of experiment: Actin co-sedimentation assay. Type of experiment: binding, rabbit. Details: Purified rabbit skeletal muscle filamentous actin (AKF99); purchased Cytoskeleton Inc. (Denver, CO) AKF99; host or cells: rabbit skeletal muscle.
Another experiment has as its system Aspergillus flavus 28445. The experiment can be described thus: MIC susceptibility testing (CLSI M38-A2). Type of experiment: cell-based. The conditions noted are these: Aspergillus flavus, 28445, 48 h, read-out: Voriconazole MIC. As for the experimental part:
(§4) Minimum inhibitory concentration (MIC) susceptibility testing was performed according to the CLSI M27-A3 and M38-A2 standards for the susceptibility testing of yeasts and filamentous fungi, respectively. Incubation temperature was at 35° C. and the inoculum size was 0.5-2.5×10^3 colony-forming units (CFU)/mL and 0.4-5×10^4 conidia/mL for yeasts and filamentous fungi, respectively. Inoculum concentration for dermatophytes was 1-3×10^3 conidia/mL. RPMI was used throughout as the growth medium and Cryptococcus strains were tested in YNB. […] Voriconazole MICs were recorded at 80% inhibition after 96 hours of incubation for dermatophytes. S. cerevisiae deletion mutants were obtained from the commercially available BY4741 deletion library (Thermo Scientific). Susceptibility testing was carried out on inoculum size of 0.5-1×10^4 cells/ml in YPD media at 30° C. and MICs recorded after 48 and 60 hours.

A further experiment has as its system Aspergillus flavus 28455. The experiment can be described thus: MIC susceptibility testing (CLSI M38-A2). In kind it is cell-based. The conditions noted are these: Aspergillus flavus, 28455, 48 h, read-out: Voriconazole MIC. As for the experimental part:
as §4

A further experiment concerns Aspergillus flavus 28517. The experiment can be described thus: MIC susceptibility testing (CLSI M38-A2). In kind it is cell-based. The conditions noted are these: Aspergillus flavus, 28517, 48 h, read-out: Voriconazole MIC. The procedure:
as §4

Experiment [6] has as its system Aspergillus fumigatus 28434. The experiment can be described thus: MIC susceptibility testing (CLSI M38-A2). Type of experiment: cell-based. The conditions noted are these: Aspergillus fumigatus, 28434, 48 h, read-out: Voriconazole MIC. The procedure: as §4
The subject of experiment [7] is Aspergillus fumigatus 28435. The experiment can be described thus: MIC susceptibility testing (CLSI M38-A2). The conditions noted are these: Aspergillus fumigatus, 28435, 48 h, read-out: Voriconazole MIC. In kind it is cell-based. As for the experimental part:
as §4

Experiment [8] has as its system Aspergillus fumigatus 28436. The experiment can be described thus: MIC susceptibility testing (CLSI M38-A2). As to conditions: Aspergillus fumigatus, 28436, 48 h, read-out: Voriconazole MIC. In kind it is cell-based. As for the experimental part:
as §4

The subject of the next experiment is Fusarium oxysporum 27718. The experiment can be described thus: MIC susceptibility testing (CLSI M38-A2). Type of experiment: cell-based. As to conditions: Fusarium oxysporum, 27718, 48 h, read-out: Voriconazole MIC. As for the experimental part: as §4
For a further experiment, the system named is Fusarium solani 18749. The experiment can be described thus: MIC susceptibility testing (CLSI M38-A2). In kind it is cell-based. As to conditions: Fusarium solani, 18749, 48 h, read-out: Voriconazole MIC. The procedure:
as §4

In a further experiment the test system is Fusarium solani 28386. As to the kind of experiment: MIC susceptibility testing (CLSI M38-A2). Type of experiment: cell-based. As to conditions: Fusarium solani, 28386, 48 h, read-out: Voriconazole MIC. As for the experimental part:
as §4

Experiment [9] concerns Mucor circinelloides 19445. As to the kind of experiment: MIC susceptibility testing (CLSI M38-A2). Type of experiment: cell-based. As to conditions: Mucor circinelloides, 19445, 24 h, read-out: Voriconazole MIC. As for the experimental part: as §4
Another experiment has as its system Mucor fragdis 27782. The experiment can be described thus: MIC susceptibility testing (CLSI M38-A2). As to conditions: Mucor, 27782, 24 h, read-out: Voriconazole MIC. In kind it is cell-based. As for the experimental part:
as §4

In another experiment the test system is Mucor racemosus 27784. The experiment can be described thus: MIC susceptibility testing (CLSI M38-A2). In kind it is cell-based. The conditions noted are these: Mucor racemosus, 27784, 24 h, read-out: Voriconazole MIC. The procedure: as §4
Experiment [10] concerns Rhizopus microsporus 27785. As to the kind of experiment: MIC susceptibility testing (CLSI M38-A2). In kind it is cell-based. As to conditions: Rhizopus microsporus, 27785, 24 h, read-out: Voriconazole MIC. As for the experimental part:
as §4

In experiment [11] the test system is Rhizopus microsporus 28506. As to the kind of experiment: MIC susceptibility testing (CLSI M38-A2). In kind it is cell-based. As to conditions: Rhizopus microsporus, 28506, 24 h, read-out: Voriconazole MIC. As for the experimental part:
as §4

The next experiment relates to Rhizopus oryzae 28403. As to the kind of experiment: MIC susceptibility testing (CLSI M38-A2). In kind it is cell-based. The conditions noted are these: Rhizopus arrhizus, 28403, 24 h, read-out: Voriconazole MIC. As for the experimental part: as §4
For experiment [12], the system named is Trichophyton mentagrophytes 10207. The experiment can be described thus: MIC susceptibility testing (CLSI M38-A2). Type of experiment: cell-based. As to conditions: Trichophyton mentagrophytes, 10207, 96 h, read-out: Voriconazole MIC. The procedure:
as §4

Experiment [13] deals with Trichophyton mentagrophytes 28556. As to the kind of experiment: MIC susceptibility testing (CLSI M38-A2). The conditions noted are these: Trichophyton mentagrophytes, 28556, 96 h, read-out: Voriconazole MIC. In kind it is cell-based. The procedure:
as §4

The test system of experiment [14] is Trichophyton mentagrophytes 28641. As to the kind of experiment: MIC susceptibility testing (CLSI M38-A2). In kind it is cell-based. As to conditions: Trichophyton mentagrophytes, 28641, 96 h, read-out: Voriconazole MIC. The procedure:
as §4

In experiment [15] the test system is Trichophyton rubrum 11199. The experiment can be described thus: MIC susceptibility testing (CLSI M38-A2). In kind it is cell-based. As to conditions: Trichophyton rubrum, 11199, 96 h, read-out: Voriconazole MIC. The procedure: as §4
Experiment [16] relates to Trichophyton rubrum 28658. The experiment can be described thus: MIC susceptibility testing (CLSI M38-A2). Type of experiment: cell-based. As to conditions: Trichophyton rubrum, 28658, 96 h, read-out: Voriconazole MIC. As for the experimental part: as §4
Experiment [17] has as its system Trichophyton rubrum 28659. As to the kind of experiment: MIC susceptibility testing (CLSI M38-A2). Type of experiment: cell-based. As to conditions: Trichophyton rubrum, 28659, 96 h, read-out: Voriconazole MIC. As for the experimental part: as §4
Experiment [18] concerns the target T2, F-actin. Details: Purified rabbit skeletal muscle filamentous actin (AKF99); purchased Cytoskeleton Inc. (Denver, CO) AKF99; host or cells: rabbit skeletal muscle. As to conditions: co-sedimentation assay, published previously (Ravichandran et al.), read-out: Kd, binding to actin; cited from earlier work.

≈ marks a conversion by molar mass, not a printed value. Where “and” joins values, the source holds several entries; their conditions need not be identical. Equal entries are not always repeated. Where two headings read alike, the source gives them in different places. Numbered stars: 1 amine (or outer) side, 2 acyl side, 3 side chain; on linkers, the order of the positions; unused ones are H or OH. Square brackets hold non-standard residues; d marks the D form. Peptide text beside a SMILES is read from it. dTyr(βR-OH) = N[C@@H](C(=O)O)[C@H](O)c1ccc(O)cc1; X1 = CCCCCCCCCCCCNCC[C@H](CC(=O)[*:2])N[*:1]; Asn(3S-OH) = NC(=O)[C@@H](O)[C@H](N)C(=O)O; dDab = NCC[C@@H](N)C(=O)O

The values that follow come from patent US12102615B2 (THE TEXAS A&M UNIVERSITY SYSTEM, priority 2018, dated 2024).

What is called MIC is the least concentration at which growth counts as inhibited. One may read the Kd as a measure of binding affinity in units of concentration.

With `CCCCCCCCCCCCCCCC(O)C(CO)NCC[C@@H]1CC(=O)N[C@H](CO)C(=O)N[C@H]([C@H](O)c2ccc(O)cc2)C(=O)N[C@H](CCN)C(=O)NCC(=O)N[C@@H](CC(N)=O)C(=O)N[C@@H](CO)C(=O)N[C@@H]([C@H](O)C(N)=O)C(=O)N1` (mixture of isomers), the MIC is 8 mg/L in [1], 16 mg/L in experiment [2] and 2 mg/L in experiment [3]. Moreover, the “pyrene fluorescence reading, plateau in polymerization buffer” value at actin is ~21,000 AU. At F-actin [4], the “effect on polymerization or depolymerization of actin” value is “did not interfere with polymerization or depolymerization of actin”. For the same compound, the “pyrene fluorescent reading following incubation in depolymerization buffer” value at F-actin [4] is given as 2,500 AU. Also, the dissociation constant Kd at F-actin [5] was 0.025 µM. Also, the “fold lower saturation of binding ratio than native occidiofungin” value at F-actin [5] (versus native occidiofungin) was found to be 13.5 fold.

As to `CCCCCCCCCCCCNCC[C@@H]1CC(=O)N[C@H](CO)C(=O)N[C@H]([C@H](O)c2ccc(O)cc2)C(=O)N[C@H](CCN)C(=O)NCC(=O)N[C@@H](CC(N)=O)C(=O)N[C@@H](CO)C(=O)N[C@@H]([C@H](O)C(N)=O)C(=O)N1` [Dodecylamine containing OF-Δxyl analogue] (cyclo(GNS[Asn(3S-OH)][X1][dS][dTyr(βR-OH)][dDab])), the minimal inhibitory concentration (MIC) in [3] is more than 4 mg/L. The compound also came in with a Kd at F-actin [5] of 4.2 µM. Further, at F-actin [5] (versus native occidiofungin), the “fold lower binding affinity to actin than native compound” value is recorded as approximately 4 fold.

For `C[C@@H](c1ncncc1F)[C@](O)(Cn1cncn1)c1ccc(F)cc1F` [Voriconazole], the minimal inhibitory concentration (MIC) in the experiment on Aspergillus flavus 28445 was determined as 2 mg/L (≈ 5.73 µM); with Aspergillus flavus 28455, 2 mg/L (≈ 5.73 µM); with Aspergillus flavus 28517, 1 mg/L (≈ 2.86 µM); in experiment [6] it was 1 mg/L (≈ 2.86 µM); in [7], 1 mg/L (≈ 2.86 µM); in experiment [8] it was 1 mg/L (≈ 2.86 µM). Moreover, the minimum inhibitory concentration (MIC) (with Fusarium oxysporum 27718; in the experiment with Fusarium solani 18749; in the experiment with Fusarium solani 28386; in [9]; in the experiment on Mucor fragdis 27782; in the experiment with Mucor racemosus 27784) was more than 16 mg/L each time. The MIC in experiment [10] was more than 16 mg/L; in experiment [11], 16 mg/L (≈ 45.8 µM); in the experiment on Rhizopus oryzae 28403, more than 16 mg/L; in experiment [12] it was 0.25 mg/L (≈ 0.716 µM); in experiment [13] it was 0.06 mg/L (≈ 0.172 µM); in experiment [14], 0.06 mg/L (≈ 0.172 µM). In addition, the MIC stood at 0.008 mg/L (≈ 0.0229 µM) in experiment [15], 0.03 mg/L (≈ 0.0859 µM) in [16] and 0.03 mg/L (≈ 0.0859 µM) in experiment [17].

For phalloidin, the “pyrene fluorescence reading, plateau in polymerization buffer” value on actin is “around 19,000 AU”. For the same compound, at F-actin [4], the “effect on polymerization or depolymerization of actin” value is listed as “completely blocked the depolymerization of F-actin” and the “pyrene fluorescent reading following incubation in depolymerization buffer” value is listed as “above 5,000 AU”. The Kd on F-actin [18] is ~0.008 µM and 0.008 µM.
